{"source": "ChEMBL document CHEMBL5523723", "about": "“G Protein-Coupled Estrogen Receptor-Mediated Anti-Inflammatory and Mucosal Healing Activity of a Trimethylpyridinol Analogue in Inflammatory Bowel Disease” (J Med Chem, 2024)", "key": {"[1]": {"assay": "Half life in Sprague-Dawley rat at 1 mg/kg, po by LC-MS analysis", "format": "ADME, organism-based", "conditions": "in vivo"}, "HT-29 [2]": {"system": "HT-29", "assay": "Induction of apoptosis in human HT-29 cells assessed as viable cells at 10 uM incubated for 24 hrs by Annexin V FITC/PI staining based flow cytometry analysis ( Rvb = 99 +/- 0.1%)", "format": "functional", "conditions": "read-out: Activity"}, "[3]": {"assay": "Half-life in Sprague-Dawley rat at 1 mg/kg, iv by LC-MS analysis", "format": "ADME, organism-based", "conditions": "in vivo"}, "[4]": {"assay": "Cmax in Sprague-Dawley rat at 1 mg/kg, po by LC-MS analysis", "format": "ADME, organism-based", "conditions": "in vivo"}, "[5]": {"assay": "Acute toxicity in ICR mouse assessed as change in kidney weight at 30 to 300 mg/kg, po measured every other day for 14 days […]", "format": "organism-based", "conditions": "in vivo, 336 h, dose 30-300 mg/kg, time 14 day"}, "[6]": {"assay": "Mean residence time in Sprague-Dawley rat at 1 mg/kg, iv by LC-MS analysis", "format": "ADME, organism-based", "conditions": "in vivo"}, "[7]": {"assay": "Cmax in Sprague-Dawley rat at 1 mg/kg, iv by LC-MS analysis", "format": "ADME, organism-based", "conditions": "in vivo"}, "[8]": {"assay": "Acute toxicity in ICR mouse assessed as change in liver weight at 30 to 300 mg/kg, po measured every other day for 14 days […]", "format": "organism-based", "conditions": "in vivo, 336 h, dose 30-300 mg/kg, time 14 day"}, "[9]": {"molecular_target": "T1, Amine oxidase [flavin-containing] B (Homo sapiens, UniProt P27338)", "T1 sequence (P27338 whole entry)": "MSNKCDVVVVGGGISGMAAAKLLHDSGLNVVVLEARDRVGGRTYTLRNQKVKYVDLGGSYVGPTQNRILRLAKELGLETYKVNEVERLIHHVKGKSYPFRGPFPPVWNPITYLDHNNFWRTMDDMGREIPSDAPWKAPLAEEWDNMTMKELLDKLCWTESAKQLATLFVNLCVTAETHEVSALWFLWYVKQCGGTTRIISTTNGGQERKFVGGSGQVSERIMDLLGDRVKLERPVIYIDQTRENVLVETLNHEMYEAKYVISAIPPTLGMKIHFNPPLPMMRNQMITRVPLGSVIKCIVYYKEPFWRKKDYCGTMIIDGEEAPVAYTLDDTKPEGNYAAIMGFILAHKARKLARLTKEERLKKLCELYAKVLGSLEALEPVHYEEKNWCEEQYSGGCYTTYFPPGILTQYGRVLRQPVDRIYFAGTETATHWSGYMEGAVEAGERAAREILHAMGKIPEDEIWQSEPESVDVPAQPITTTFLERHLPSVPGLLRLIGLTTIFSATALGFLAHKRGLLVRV", "assay": "Inhibition of MAOB (unknown origin)"}, "[10]": {"assay": "Acute toxicity in ICR mouse assessed as abnormal behavior at 30 to 300 mg/kg, po measured every other day for 14 days", "format": "organism-based", "conditions": "in vivo, 336 h, dose 30-300 mg/kg, time 14 day"}, "CYP2C19": {"molecular_target": "CYP2C19 (Homo sapiens, UniProt P33261)", "sequence (P33261 whole entry)": "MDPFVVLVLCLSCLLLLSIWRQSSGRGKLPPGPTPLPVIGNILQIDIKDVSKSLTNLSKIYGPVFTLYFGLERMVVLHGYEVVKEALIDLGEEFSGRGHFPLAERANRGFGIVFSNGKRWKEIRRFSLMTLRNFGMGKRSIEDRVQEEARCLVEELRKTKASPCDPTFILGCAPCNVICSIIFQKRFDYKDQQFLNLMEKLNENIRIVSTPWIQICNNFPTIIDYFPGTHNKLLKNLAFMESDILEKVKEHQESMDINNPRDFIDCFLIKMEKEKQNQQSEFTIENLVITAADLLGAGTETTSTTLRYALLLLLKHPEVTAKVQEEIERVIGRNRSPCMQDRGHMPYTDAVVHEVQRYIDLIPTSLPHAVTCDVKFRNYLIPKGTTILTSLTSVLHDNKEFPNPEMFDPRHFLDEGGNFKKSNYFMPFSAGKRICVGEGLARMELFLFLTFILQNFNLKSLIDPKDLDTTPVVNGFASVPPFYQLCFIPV", "assay": "Inhibition of CYP2C19 in human liver microsomes assessed as remaining activity at 10 uM using 5-mephenytoin as substrate preincubated for 5 mins followed by NADPH generating system addition for 15 mins by LC-MS/MS method relative to control", "format": "ADME, Microsome", "conditions": "probe 5-mephenytoin, time 20 min, read-out: Activity"}, "CYP1A2": {"molecular_target": "T2, CYP1A2 (Homo sapiens, UniProt P05177)", "T2 sequence (P05177 whole entry)": "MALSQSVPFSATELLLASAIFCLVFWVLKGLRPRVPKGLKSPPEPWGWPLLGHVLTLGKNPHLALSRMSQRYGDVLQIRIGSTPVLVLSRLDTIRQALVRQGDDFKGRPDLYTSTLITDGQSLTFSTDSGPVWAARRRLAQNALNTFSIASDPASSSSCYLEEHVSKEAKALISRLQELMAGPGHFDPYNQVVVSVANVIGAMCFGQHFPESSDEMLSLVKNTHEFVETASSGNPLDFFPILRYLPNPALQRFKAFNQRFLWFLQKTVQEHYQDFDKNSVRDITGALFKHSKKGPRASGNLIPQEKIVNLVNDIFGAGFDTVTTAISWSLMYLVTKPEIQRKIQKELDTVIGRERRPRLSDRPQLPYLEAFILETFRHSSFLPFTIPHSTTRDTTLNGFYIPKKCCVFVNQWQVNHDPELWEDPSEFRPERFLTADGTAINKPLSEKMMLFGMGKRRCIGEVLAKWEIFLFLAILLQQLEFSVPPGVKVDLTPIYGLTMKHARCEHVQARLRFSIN", "assay": "Inhibition of CYP1A2 in human liver microsomes assessed as remaining activity at 10 uM using phenacetin as substrate preincubated for 5 mins followed by NADPH generating system addition for 15 mins by LC-MS/MS method relative to control", "format": "ADME, Microsome", "conditions": "probe phenacetin, time 20 min, read-out: Activity"}, "HT-29 [11]": {"system": "HT-29", "assay": "Induction of apoptosis in human HT-29 cells assessed as viable cells at 1 uM incubated for 24 hrs by Annexin V FITC/PI staining based flow cytometry analysis ( Rvb = 99 +/- 0.1%)", "format": "functional", "conditions": "read-out: Activity"}, "[12]": {"assay": "Acute toxicity in ICR mouse assessed as change in heart weight at 30 to 300 mg/kg, po measured every other day for 14 days […]", "format": "organism-based", "conditions": "in vivo, 336 h, dose 30-300 mg/kg, time 14 day"}, "U-937": {"system": "U-937", "assay": "Induction of apoptosis in human U-937 cells assessed as viable cells at 1 uM incubated for 24 hrs by Annexin V FITC/PI staining based flow cytometry analysis ( Rvb = 95.2 +/- 0.4%)", "format": "functional", "conditions": "read-out: Activity"}, "[13]": {"assay": "Acute toxicity in ICR mouse assessed as weight loss at 30 to 300 mg/kg, po measured every other day for 14 days", "format": "organism-based", "conditions": "in vivo, 336 h, dose 30-300 mg/kg, time 14 day"}, "[14]": {"assay": "Volume of distribution at steady state in Sprague-Dawley rat at 1 mg/kg, iv by LC-MS analysis", "format": "ADME, organism-based", "conditions": "in vivo, read-out: Vdss"}, "[15]": {"assay": "Acute toxicity in ICR mouse assessed as change in histology of liver at 30 to 300 mg/kg, po measured every other day for 14 days by H and E staining based assay", "format": "organism-based", "conditions": "in vivo, 336 h, dose 30-300 mg/kg, time 14 day"}, "[16]": {"assay": "AUC(0 to t) in Sprague-Dawley rat at 5 mg/kg, po by LC-MS analysis", "format": "ADME, organism-based", "conditions": "in vivo"}, "[17]": {"assay": "Oral bioavailability in Sprague-Dawley rat at 5 mg/kg by LC-MS analysis", "format": "ADME, organism-based", "conditions": "in vivo"}, "[18]": {"assay": "Mean residence time in Sprague-Dawley rat at 5 mg/kg, po by LC-MS analysis", "format": "ADME, organism-based", "conditions": "in vivo"}, "[19]": {"molecular_target": "G-protein coupled estrogen receptor 1 (Homo sapiens, UniProt Q99527)", "sequence (Q99527 whole entry)": "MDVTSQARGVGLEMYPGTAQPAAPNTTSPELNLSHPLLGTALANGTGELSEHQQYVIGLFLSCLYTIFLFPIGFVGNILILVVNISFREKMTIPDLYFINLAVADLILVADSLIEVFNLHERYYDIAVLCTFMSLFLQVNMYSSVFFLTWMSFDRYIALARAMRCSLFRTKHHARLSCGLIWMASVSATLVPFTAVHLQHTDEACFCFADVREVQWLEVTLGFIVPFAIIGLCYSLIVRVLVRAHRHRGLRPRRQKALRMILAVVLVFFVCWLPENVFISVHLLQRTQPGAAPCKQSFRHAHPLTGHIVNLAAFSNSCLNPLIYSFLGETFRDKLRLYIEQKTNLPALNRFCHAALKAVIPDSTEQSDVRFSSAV", "assay": "Inhibition of GPER1 (unknown origin)"}, "[20]": {"assay": "AUC(0 to t) in Sprague-Dawley rat at 1 mg/kg, iv by LC-MS analysis", "format": "ADME, organism-based", "conditions": "in vivo"}, "[21]": {"assay": "Acute toxicity in ICR mouse assessed as change in food intake at 30 to 300 mg/kg, po measured every other day for 14 days", "format": "organism-based", "conditions": "in vivo, 336 h, dose 30-300 mg/kg, time 14 day"}, "hERG": {"molecular_target": "hERG (Homo sapiens, UniProt Q12809)", "sequence (Q12809 whole entry)": "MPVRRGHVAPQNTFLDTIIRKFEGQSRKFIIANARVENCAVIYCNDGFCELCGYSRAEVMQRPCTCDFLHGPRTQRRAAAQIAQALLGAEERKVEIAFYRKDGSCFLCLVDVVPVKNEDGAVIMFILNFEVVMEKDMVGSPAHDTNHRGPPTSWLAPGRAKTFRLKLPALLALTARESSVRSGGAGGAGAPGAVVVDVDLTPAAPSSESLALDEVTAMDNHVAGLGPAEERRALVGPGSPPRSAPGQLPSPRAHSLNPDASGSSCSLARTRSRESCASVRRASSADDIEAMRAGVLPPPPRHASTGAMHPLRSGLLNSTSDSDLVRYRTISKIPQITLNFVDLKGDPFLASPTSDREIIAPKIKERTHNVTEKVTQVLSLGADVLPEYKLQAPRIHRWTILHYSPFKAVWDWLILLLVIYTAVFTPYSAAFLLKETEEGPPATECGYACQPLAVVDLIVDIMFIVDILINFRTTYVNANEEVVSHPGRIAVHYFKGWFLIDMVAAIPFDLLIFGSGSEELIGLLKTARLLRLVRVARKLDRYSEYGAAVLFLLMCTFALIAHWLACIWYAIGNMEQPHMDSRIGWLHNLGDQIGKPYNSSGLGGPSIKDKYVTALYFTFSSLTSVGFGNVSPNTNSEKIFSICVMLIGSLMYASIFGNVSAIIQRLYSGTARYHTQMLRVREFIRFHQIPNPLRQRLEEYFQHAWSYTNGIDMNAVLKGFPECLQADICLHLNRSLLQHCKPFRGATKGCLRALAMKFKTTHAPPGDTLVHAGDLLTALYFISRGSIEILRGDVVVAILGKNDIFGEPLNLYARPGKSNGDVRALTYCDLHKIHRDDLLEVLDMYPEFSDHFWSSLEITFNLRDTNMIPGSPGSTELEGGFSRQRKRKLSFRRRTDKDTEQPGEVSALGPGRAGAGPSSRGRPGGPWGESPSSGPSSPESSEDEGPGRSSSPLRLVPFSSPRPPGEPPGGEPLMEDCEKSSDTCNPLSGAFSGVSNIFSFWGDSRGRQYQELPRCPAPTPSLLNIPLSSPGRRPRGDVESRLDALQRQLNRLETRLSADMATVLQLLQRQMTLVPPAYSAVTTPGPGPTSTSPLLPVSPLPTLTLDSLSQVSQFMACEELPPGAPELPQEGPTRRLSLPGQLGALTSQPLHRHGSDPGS", "assay": "Inhibition of hERG expressed in HEK cells assessed as remaining activity at 10 uM by automated patch clamp method relative to control", "format": "toxicity, cell-based", "conditions": "HEK cells expressing hERG, read-out: Activity"}, "[22]": {"assay": "Mean residence time in Sprague-Dawley rat at 1 mg/kg, po by LC-MS analysis", "format": "ADME, organism-based", "conditions": "in vivo"}}, "note": "pEC50, pIC50: −log10 of the molar value.", "data": [{"smiles": "Cc1nc(NC(=O)c2sc3cc(F)ccc3c2Cl)c(C)c(C)c1O", "values": [{"measurement": "half-life", "setting": "[1]", "value": 3.8, "unit": "h"}, {"measurement": "viability at 10 µM", "setting": "HT-29 [2]", "value": 98.6, "unit": "%"}, {"measurement": "half-life", "setting": "[3]", "value": 2, "unit": "h"}, {"measurement": "Cmax", "setting": "[4]", "value": 51.9, "unit": "ng/mL"}, {"measurement": "Activity", "setting": "[5]", "value": "Non-Toxic"}, {"measurement": "MRT", "setting": "[6]", "value": 1.2, "unit": "h"}, {"measurement": "Cmax", "setting": "[7]", "value": 1880, "unit": "ng/mL"}, {"measurement": "Activity", "setting": "[8]", "value": "Non-Toxic"}, {"measurement": "pIC50", "setting": "[9]", "value": 7.27}, {"measurement": "Activity", "setting": "[10]", "value": "Non-Toxic"}, {"measurement": "activity at 0.25 h, 10 µM", "setting": "CYP2C19", "value": 98.3, "unit": "%"}, {"measurement": "activity at 0.25 h, 10 µM", "setting": "CYP1A2", "value": 89.2, "unit": "%"}, {"measurement": "viability at 1 µM", "setting": "HT-29 [11]", "value": 98.8, "unit": "%"}, {"measurement": "Activity", "setting": "[12]", "value": "Non-Toxic"}, {"measurement": "viability at 1 µM", "setting": "U-937", "value": 95.4, "unit": "%"}, {"measurement": "Activity", "setting": "[13]", "value": "Non-Toxic"}, {"measurement": "Vd", "setting": "[14]", "value": 1.3, "unit": "L/kg"}, {"measurement": "Activity", "setting": "[15]", "value": "Non-Toxic"}, {"measurement": "AUCt", "setting": "[16]", "value": 1849.2, "unit": "ng·h/mL"}, {"measurement": "F", "setting": "[17]", "value": 36.7, "unit": "%"}, {"measurement": "MRT", "setting": "[18]", "value": 5, "unit": "h"}, {"measurement": "pEC50", "setting": "[19]", "value": 6.32}, {"measurement": "AUCt", "setting": "[20]", "value": 10006.6, "unit": "ng·h/mL"}, {"measurement": "Activity", "setting": "[21]", "value": "Non-Toxic"}, {"measurement": "activity at 10 µM", "setting": "hERG", "value": 91.7, "unit": "%"}, {"measurement": "MRT", "setting": "[22]", "value": 5.7, "unit": "h"}]}]}
